Series [1] addresses T1, Bcl-2-like protein 1 (Homo sapiens, UniProt Q07817). The series is described as follows: Binding affinity to BCL-XL (unknown origin) by 15N HSQC NMR analysis.
The nature of series [2]: Half life in mouse. Type of series: ADME, organism-based. To be noted: in vivo.
Series [3] can be described thus: Half life in rat. Format: ADME. The note with it: in vivo.
Series [4] is described as follows: Oral bioavailability in rat. To be noted: in vivo. Type of series: ADME, organism-based.
Series [5] is described as follows: Half life in dog. Type of series: ADME, Canis lupus familiaris. The note with it: in vivo.
Series [6] can be described thus: Oral bioavailability in mouse. Type of series: ADME, organism-based. The note with it: in vivo.
Series [7] can be described thus: Oral bioavailability in monkey. Format: ADME, organism-based, Macaca mulatta. The note with it: rhesus monkey, in vivo.
Series [8] can be described thus: Oral bioavailability in dog. The note with it: in vivo. Type of series: ADME, organism-based, Canis lupus familiaris.
Series [9] can be described thus: Half life in monkey. Format: ADME, Macaca mulatta. To be noted: rhesus monkey, in vivo.
In series [10] the target is T2, Bcl-2-like protein 2 (Homo sapiens, UniProt Q92843).
T2 sequence (Q92843 whole entry): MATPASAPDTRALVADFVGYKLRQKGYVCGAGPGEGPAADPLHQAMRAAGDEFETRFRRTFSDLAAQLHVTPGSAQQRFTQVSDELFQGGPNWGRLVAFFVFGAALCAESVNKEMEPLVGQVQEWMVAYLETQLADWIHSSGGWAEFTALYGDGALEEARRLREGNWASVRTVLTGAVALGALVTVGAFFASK
The series is described as follows: Inhibition of BCL-W (unknown origin) by fluorescence polarization assay. Background: Fluorescence polarisation rises when a labelled molecule tumbles more slowly, as on binding a larger partner.

Series [11] can be described thus: Toxicity in mouse xenografted with human haematological tumor at 12.5 mg/kg, po. Type of series: organism-based. A general note: Xenograft models place foreign cells or tissue in a host animal.
A short description of series [12]: Half life in human. Format: ADME.
Series [13] has as its target T1, Bcl-2-like protein 1. Briefly: Inhibition of BCL-XL (unknown origin) incubated for 15 mins by fluorescence polarization assay.

Broadly, the Kd is the equilibrium constant for the complex coming apart. In general, half-life refers to the time needed for the level to fall by half in the phase considered. Usually bioavailability stands for dose-corrected exposure relative to a reference, in per cent. A word on the Ki: it is the dissociation constant of the complex between target and ligand, obtained from inhibition or displacement. By EC50 is commonly meant the concentration giving half of the maximal effect.

T1 sequence (Q07817 whole entry): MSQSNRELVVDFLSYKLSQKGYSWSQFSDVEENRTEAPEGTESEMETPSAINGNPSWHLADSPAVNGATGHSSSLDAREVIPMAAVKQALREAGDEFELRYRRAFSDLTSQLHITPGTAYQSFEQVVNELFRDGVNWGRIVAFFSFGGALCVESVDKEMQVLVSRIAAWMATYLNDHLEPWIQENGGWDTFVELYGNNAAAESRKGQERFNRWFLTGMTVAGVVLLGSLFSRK

Compound `Oc1ccc(-c2ccccc2)cc1` showed a dissociation constant Kd in [1] of 6000 µM.
On to `CN(C)CC[C@H](CSc1ccccc1)Nc1ccc(S(=O)(=O)NC(=O)c2ccc(N3CCN(Cc4ccccc4-c4ccc(Cl)cc4)CC3)cc2)cc1[N+](=O)[O-]` [ABT 737], for which the half-life in [2], in series [3], in series [5] and in series [9] was 4 to 6.4 h each time. Also, the bioavailability in series [4], in series [6], in series [7] and in [8] was 20% each time.
In [10], `CC1(C)CCC(c2ccc(Cl)cc2)=C(CN2CCN(c3ccc(C(=O)NS(=O)(=O)c4ccc(N[C@H](CCN5CCOCC5)CSc5ccccc5)c(S(=O)(=O)C(F)(F)F)c4)cc3)CC2)C1` [NAVITOCLAX] registered a Ki of 0.245 µM. This compound yielded an EC50 in [11] of 0.083 µM.
With `CC1(C)CCC(CN2CCN(c3ccc(C(=O)NS(=O)(=O)c4ccc(NCC5CCOCC5)c([N+](=O)[O-])c4)c(Oc4cnc5[nH]ccc5c4)c3)CC2)=C(c2ccc(Cl)cc2)C1` [VENETOCLAX], a half-maximal effect in series [11] (EC50) was put at 5.5 µM.
Consider `CCS(=O)(=O)Nc1ccc(Oc2ccc(F)cc2F)c(-c2cn(C)c(=O)c3[nH]ccc23)c1` [MIVEBRESIB], for which, in series [12], the half-life is 25 h.
In turn, `O=C(O)c1ccc(-c2ccc(F)cc2)cc1/C=C/c1cccc(-c2ccccc2)c1` displayed a Ki in series [13] of 1.4 µM.

The values above are taken from ChEMBL document CHEMBL4342405, “Clinical candidates modulating protein-protein interactions: The fragment-based experience” (Eur J Med Chem, 2019).
